Like-named read-outs stand apart in the source and are kept apart here.
Assay: Biodistribution of 99mTc complexes in rats
Type: in vivo, Australian Albino Wistar Rats
Conditions: rat, rats; for tissue uptake at 0.5 min: 30 sec; for tissue uptake at 0.05 h: 3 min
Protocol: A typical method of radiolabelling of the chelator was achieved by dissolving the chelator in a basic solution of saline. The pH was then adjusted to approx. 6 with HCl. Excess stannous chloride was added to the resultant solution followed by one equivalent volume of sodium ^99m TcO4 (10-50 mCi/ml). Final concentration of the chelator was approx. 1 mg/ml. The efficacy of labelling was determined by ITLC-SG. For each product only one main radiochemical species was observed. Each complex was diluted to 15 μCi/100 μl with saline. […] (See FIGS. 1A and 1B).
Selected data from biodistribution results of technetium-99m complexes of No. 1, No. 2 and No 4 in the liver, kidney and blood at 3 minutes is tabulated below.

[1] = blood, read-out: biodistribution blood
[2] = bone, read-out: biodistribution bone
[3] = brain, read-out: biodistribution brain
[4] = eyes, read-out: biodistribution eyes
[5] = heart, read-out: biodistribution heart
[6] = kidneys, read-out: biodistribution kidneys
[7] = liver, read-out: biodistribution liver
[8] = lungs, read-out: biodistribution lungs
[9] = muscle, read-out: biodistribution muscle
[10] = pancreas, read-out: biodistribution pancreas
[11] = skin, read-out: biodistribution skin
[12] = spleen, read-out: biodistribution spleen
[13] = tail, read-out: biodistribution tail
[14] = thymus, read-out: biodistribution thymus
[15] = thyroid, read-out: biodistribution thyroid

SMILES: O=C(O)CN(CCN(CC(=O)O)CC(=O)Nc1cc([N+](=O)[O-])ccc1O)CC(=O)Nc1cc([N+](=O)[O-])ccc1O [Compound 3]
- tissue uptake at 0.5 min [1]: 2.1 %ID/g
- tissue uptake at 1 min [1]: 1.83 %ID/g
- tissue uptake at 0.05 h [1]: 1.37 %ID/g
- tissue uptake at 5 min [1]: 1.17 %ID/g
- tissue uptake at 10 min [1]: 0.86 %ID/g
- tissue uptake at 0.5 min [2]: 0.3 %ID/g
- tissue uptake at 1 min [2]: 0.29 %ID/g
- tissue uptake at 0.05 h [2]: 0.3 %ID/g
- tissue uptake at 5 min [2]: 0.29 %ID/g
- tissue uptake at 10 min [2]: 0.22 %ID/g
- tissue uptake at 0.5 min [3]: 0.18 %ID/g
- tissue uptake at 1 min [3]: 0.14 %ID/g
- tissue uptake at 0.05 h [3]: 0.09 %ID/g
- tissue uptake at 5 min [3]: 0.08 %ID/g
- tissue uptake at 10 min [3]: 0.05 %ID/g
- tissue uptake at 0.5 min [4]: 0.2 %ID/g
- tissue uptake at 1 min [4]: 0.23 %ID/g
- tissue uptake at 0.05 h [4]: 0.23 %ID/g
- tissue uptake at 5 min [4]: 0.17 %ID/g
- tissue uptake at 10 min [4]: 0.18 %ID/g
- tissue uptake at 0.5 min [5]: 0.78 %ID/g
- tissue uptake at 1 min [5]: 0.65 %ID/g
- tissue uptake at 0.05 h [5]: 0.55 %ID/g
- tissue uptake at 5 min [5]: 0.45 %ID/g
- tissue uptake at 10 min [5]: 0.34 %ID/g
- tissue uptake at 0.5 min [6]: 3.92 %ID/g
- tissue uptake at 1 min [6]: 4.63 %ID/g
- tissue uptake at 0.05 h [6]: 4.27 %ID/g
- tissue uptake at 5 min [6]: 3 %ID/g
- tissue uptake at 10 min [6]: 2.1 %ID/g
- tissue uptake at 0.5 min [7]: 1.43 %ID/g
- tissue uptake at 1 min [7]: 1.61 %ID/g
- tissue uptake at 0.05 h [7]: 1.61 %ID/g
- tissue uptake at 5 min [7]: 1.24 %ID/g
- tissue uptake at 10 min [7]: 0.92 %ID/g
- tissue uptake at 0.5 min [8]: 1.24 %ID/g
- tissue uptake at 1 min [8]: 1.04 %ID/g
- tissue uptake at 0.05 h [8]: 0.87 %ID/g
- tissue uptake at 5 min [8]: 0.72 %ID/g
- tissue uptake at 10 min [8]: 0.57 %ID/g
- tissue uptake at 0.5 min [9]: 0.26 %ID/g
- tissue uptake at 1 min [9]: 0.24 %ID/g
- tissue uptake at 0.05 h [9]: 0.23 %ID/g
- tissue uptake at 5 min [9]: 0.21 %ID/g
- tissue uptake at 10 min [9]: 0.22 %ID/g
- tissue uptake at 0.5 min [10]: 0.47 %ID/g
- tissue uptake at 1 min [10]: 0.41 %ID/g
- tissue uptake at 0.05 h [10]: 0.38 %ID/g
- tissue uptake at 5 min [10]: 0.42 %ID/g
- tissue uptake at 10 min [10]: 0.21 %ID/g
- tissue uptake at 0.5 min [11]: 0.49 %ID/g
- tissue uptake at 1 min [11]: 0.43 %ID/g
- tissue uptake at 0.05 h [11]: 0.58 %ID/g
- tissue uptake at 5 min [11]: 0.64 %ID/g
- tissue uptake at 10 min [11]: 0.63 %ID/g
- tissue uptake at 0.5 min [12]: 0.49 %ID/g
- tissue uptake at 1 min [12]: 0.42 %ID/g
- tissue uptake at 0.05 h [12]: 0.29 %ID/g
- tissue uptake at 5 min [12]: 0.23 %ID/g
- tissue uptake at 10 min [12]: 0.17 %ID/g
- tissue uptake at 0.5 min [13]: 0.85 %ID/g
- tissue uptake at 1 min [13]: 2.43 %ID/g
- tissue uptake at 0.05 h [13]: 0.63 %ID/g
- tissue uptake at 5 min [13]: 0.84 %ID/g
- tissue uptake at 10 min [13]: 0.84 %ID/g
- tissue uptake at 0.5 min [14]: 0.38 %ID/g
- tissue uptake at 1 min [14]: 0.34 %ID/g
- tissue uptake at 0.05 h [14]: 0.32 %ID/g
- tissue uptake at 5 min [14]: 0.25 %ID/g
- tissue uptake at 10 min [14]: 0.2 %ID/g
- tissue uptake at 0.5 min [15]: 1.11 %ID/g
- tissue uptake at 1 min [15]: 1.14 %ID/g
- tissue uptake at 0.05 h [15]: 0.92 %ID/g
- tissue uptake at 5 min [15]: 0.7 %ID/g
- tissue uptake at 10 min [15]: 0.63 %ID/g
